In assay [1] the test system is Stat84 and Stat91L homodimers. In words: Dissociation-reassociation analysis (gel mobility shift with GAS probe). It is filed as biochemical, human. Conditions: for dissociation of the dimers and block of formation of DNA protein complexes: peptide 160 μM. How it is done: (§1) Gel Mobility Shift Assays. Gel mobility shift assays were carried out as described (34). An oligonucleotide corresponding to the GAS element from the human FcγRI receptor gene (Pearse et al. 1993) was synthesized and used for gel mobility shift assays. The oligonucleotide has the following sequence: 5′[…]3′ (SEQ. ID NO:17).
Dissociation-reassociation Analysis. Extracts were incubated with various concentrations of peptides or fusion proteins, and ^32P-labeled GAS oligonucleotide probe in gel shift buffer was then added to promote the formation of protein-DNA complex followed by mobility shift analysis.
Dimerization of Stat91 Involves Phosphoryrosyl Peptide and SH2 Interactions. Based on the results described above, we devised a dissociation-reassociation assay in the absence of guanidium hydrochloride to explore the possible nature of interactions involved in dimer formation (FIG. 20). When the short and the long forms of a homodimer are mixed with a dissociating agent (e.g., a peptide containing the putative dimerization domain), the subunits of the dimer should dissociate (in a concentration dependent fashion) due to the interaction of the agent with the dimerization domain(s) of the protein. When a specific DNA probe is subsequently added to the mixture to drive the formation of a stable protein-DNA complex, the detection of any reassociated or remaining dimers can be assayed. In the presence of low concentration of the dissociating agent, addition of DNA to form the stable protein-DNA complex should lead to the detection of homodimers as well as heterodimers. At high concentration of the dissociating agent, subunits of the dimer may not be able to re-form and no DNA-protein complexes would be detected (FIG. 20).

For another assay, the target named is T1, Stat91-DNA complex (Homo sapiens, UniProt P42224).
T1 sequence (P42224 1-750): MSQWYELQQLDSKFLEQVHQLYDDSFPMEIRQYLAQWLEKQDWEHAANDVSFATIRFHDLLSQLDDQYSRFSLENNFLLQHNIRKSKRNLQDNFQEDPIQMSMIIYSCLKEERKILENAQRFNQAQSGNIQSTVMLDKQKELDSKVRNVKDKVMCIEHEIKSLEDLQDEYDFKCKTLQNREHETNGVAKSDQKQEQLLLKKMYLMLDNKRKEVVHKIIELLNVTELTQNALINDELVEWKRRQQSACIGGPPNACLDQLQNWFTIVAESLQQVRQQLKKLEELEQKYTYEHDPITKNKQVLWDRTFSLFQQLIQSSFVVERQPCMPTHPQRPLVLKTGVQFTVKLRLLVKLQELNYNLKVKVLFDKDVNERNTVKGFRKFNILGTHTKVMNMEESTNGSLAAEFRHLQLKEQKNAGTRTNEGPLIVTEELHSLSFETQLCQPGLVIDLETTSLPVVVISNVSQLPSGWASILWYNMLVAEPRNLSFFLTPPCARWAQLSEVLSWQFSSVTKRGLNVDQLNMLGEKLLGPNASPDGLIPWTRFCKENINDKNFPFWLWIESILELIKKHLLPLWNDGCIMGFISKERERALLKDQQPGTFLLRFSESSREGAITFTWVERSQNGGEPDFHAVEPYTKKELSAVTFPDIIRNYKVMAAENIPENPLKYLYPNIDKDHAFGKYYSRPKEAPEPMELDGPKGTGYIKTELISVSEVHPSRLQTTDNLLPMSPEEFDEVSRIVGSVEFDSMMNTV
In words: Formation of Stat91-DNA complex in the presence of phosphoamino acids. It is filed as biochemical. Conditions: 10 mM. As to the method:
as §1
The Stat91 sequence contains an SH2 domain (amino acids 569 to 700, see discussion below), and we knew that Tyr-701 was the single phosphorylated tyrosine residue required for DNA binding activity (supra, 45). […] We therefore sought evidence that the dimerization of Stat91 involved specific SH2-phosphotyrosine interaction using the dissociation and reassociation assay.

The subject of assay [2] is ISGF-3 formation / IFN-α induced transcription. Conditions: cited from earlier work.

Square brackets hold non-standard residues; d marks the D form. Ends that are not written are not given here. pY = N[C@@H](Cc1ccc(OP(=O)(O)O)cc1)C(=O)O

“EPQY*EEIPIYL (EPQ[pY]EEIPIYL) [SrcY-p, reference compound]”: the “effect on Stat91 dimer formation” value in assay [1] (FIG. 21 lanes 11-13 (4, 40, 160 μM)) was “no effect”.
On to GY*IKTE (G[pY]IKTE) [91Y-p], for which the “exchange between the subunits of Stat84 dimers and Stat91L dimers to form heterodimers” value in assay [1] (peptide 4 μM, extracts of IFN-γ-treated C84 and C91L cells) is listed as “clearly promoted the exchange”. In addition, in assay [1], the “dissociation of the dimers and block of formation of DNA protein complexes” value was “dissociated the dimers and blocked the formation of DNA protein complexes”.
As for `N[C@@H](COP(=O)(O)O)C(=O)O` [phosphoserine], the “prevention of formation of Stat91-DNA complex” value at Stat91-DNA complex is recorded as “not”.
For `C[C@@H](OP(=O)(O)O)[C@H](N)C(=O)O` [phosphothreonine], the “prevention of formation of Stat91-DNA complex” value at Stat91-DNA complex is reported as “not”.
Take `N[C@@H](Cc1ccc(OP(=O)(O)O)cc1)C(=O)O` [phosphotyrosine]: the “prevention of formation of Stat91-DNA complex” value at Stat91-DNA complex is “could prevent the formation”.
As for `CN[C@@H]1C[C@H]2O[C@@](C)([C@@H]1OC)n1c3ccccc3c3c4c(c5c6ccccc6n2c5c31)C(=O)NC4` [staurosporine], in assay [2], the “IFN-α induction of ISGF-3 formation” value is given as “blocks” and the “IFN-α induction of transcription” value is given as “blocks”.
For “KVNLQERRKY*LKHR (KVNLQERRK[pY]LKHR) [113Y-p]”, in assay [1] (at concentrations similar to 91Y-p), the “exchange of subunits between Stat84 and Stat91L” value was “promoted the exchange of subunits”. The “prevention of the gel shift bands” value in assay [1] (peptide 40 μM) is “prevented the gel shift bands almost completely”.
Regarding LDGPKGTGYIKTELI [91Y], the “dissociation of the dimers and block of formation of DNA protein complexes” value in assay [1] is “not”. The “effect on the two gel shift bands characteristic of Stat84 or Stat91L homodimers” value in assay [1] (various concentrations of peptide (4, 40, 160 μM)) was “no effect”.

The record behind these values is patent US7339039B2, “Nucleic acids encoding receptor recognition factors, and methods of use thereof” (The Rockfeller University, priority 1992, dated 2008).
